Legend:
Assay in all cases: relative viability (nuclei count vs DMSO), 5 days (fraction); higher = more cells survive
Ruxolitinib + Lapatinib = compound: N#CC[C@H](C1CCCC1)n1cc(-c2ncnc3[nH]ccc23)cn1 [Ruxolitinib] + CS(=O)(=O)CCNCc1ccc(-c2ccc3ncnc(Nc4ccc(OCc5cccc(F)c5)c(Cl)c4)c3c2)o1 [Lapatinib] (partner 2 µM)
How it was run: (§1)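 Cells from lung cancer lines were seeded into 1536-well plates and, one day later, dosed by pin tool. Treatments were either a single drug or a fixed dose of an anchor drug with five library-drug doses (not always all listed) in √10 steps. After 5 days, nuclei were stained in a one-step fixation (final 0.05% Triton X-100, 1% formaldehyde, 1 ug/ml Hoechst) and counted on 4× images, and relative viability is the treated-to-vehicle nuclei ratio, as the median of duplicate plates.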

Vismodegib + Trametinib = compound: CS(=O)(=O)c1ccc(C(=O)Nc2ccc(Cl)c(-c3ccccn3)c2)c(Cl)c1 [Vismodegib] + CC(=O)Nc1cccc(-n2c(=O)n(C3CC3)c(=O)c3c(Nc4ccc(I)cc4F)n(C)c(=O)c(C)c32)c1 [Trametinib] (partner 0.02 µM)
How it was run: as §1

VE-821 + Alpelisib = compound: CS(=O)(=O)c1ccc(-c2cnc(N)c(C(=O)Nc3ccccc3)n2)cc1 [VE-821] + Cc1nc(NC(=O)N2CCC[C@H]2C(N)=O)sc1-c1ccnc(C(C)(C)C(F)(F)F)c1 [Alpelisib] (partner 2 µM)
How it was run: as §1

Vismodegib + Olaparib = compound: CS(=O)(=O)c1ccc(C(=O)Nc2ccc(Cl)c(-c3ccccn3)c2)c(Cl)c1 [Vismodegib] + O=C(c1cc(Cc2n[nH]c(=O)c3ccccc23)ccc1F)N1CCN(C(=O)C2CC2)CC1 [Olaparib] (partner 8 µM)
How it was run: as §1

Cell Line | relative viability (Ruxolitinib + Lapatinib; first compound 0.08 µM) | relative viability (Ruxolitinib + Lapatinib; first compound 0.253 µM) | relative viability (Ruxolitinib + Lapatinib; first compound 0.8 µM) | relative viability (Ruxolitinib + Lapatinib; first compound 2.53 µM) | relative viability (Ruxolitinib + Lapatinib; first compound 8 µM) | relative viability (Vismodegib + Trametinib; first compound 0.08 µM) | relative viability (Vismodegib + Trametinib; first compound 0.253 µM) | relative viability (Vismodegib + Trametinib; first compound 0.8 µM) | relative viability (Vismodegib + Trametinib; first compound 2.53 µM) | relative viability (Vismodegib + Trametinib; first compound 8 µM) | relative viability (VE-821 + Alpelisib; first compound 0.08 µM) | relative viability (VE-821 + Alpelisib; first compound 0.253 µM) | relative viability (VE-821 + Alpelisib; first compound 0.8 µM) | relative viability (VE-821 + Alpelisib; first compound 2.53 µM) | relative viability (VE-821 + Alpelisib; first compound 8 µM) | relative viability (Vismodegib + Olaparib; first compound 0.08 µM) | relative viability (Vismodegib + Olaparib; first compound 0.253 µM) | relative viability (Vismodegib + Olaparib; first compound 0.8 µM) | relative viability (Vismodegib + Olaparib; first compound 2.53 µM) | relative viability (Vismodegib + Olaparib; first compound 8 µM)
201T | 1.1 | 1.14 | 1.11 | 1.28 | 1.26 | 0.724 | 0.721 | 0.737 | 0.698 | 0.657 | 1.11 | 1.03 | 0.878 | 1.09 | 0.85 | 0.826 | 0.875 | 0.798 | 0.845 | 0.822
A549 | 0.998 | 1.03 | 1.04 | 0.918 | 0.636 | – | – | – | – | – | 0.995 | 0.746 | 0.624 | 0.872 | 0.548 | 0.247 | 0.358 | 0.31 | 0.352 | 0.194
A-427 | 0.875 | 1.14 | 1.09 | 1.11 | 0.967 | 0.812 | 0.82 | 0.654 | 0.777 | 0.913 | 1.01 | 1.03 | 1.08 | 1.12 | 0.706 | 0.743 | 0.804 | 0.642 | 0.675 | 0.786
ABC-1 | 1.19 | 1.19 | 1.4 | 1.11 | 1.17 | – | – | – | – | – | 1.21 | 0.854 | 0.91 | 1.03 | 0.904 | 0.76 | 0.788 | 0.725 | 1.01 | 1.09
BEN | 0.798 | 0.76 | 0.766 | 0.767 | 0.777 | 1.14 | 1.03 | 0.873 | 1.14 | 1.1 | 1.09 | 1.01 | 0.877 | 0.968 | 0.976 | 1.14 | 1.05 | 0.889 | 1.08 | 1.13
CAL-12T | – | 0.643 | 0.88 | 0.697 | 0.623 | 0.309 | 0.333 | 0.372 | 0.355 | 0.426 | 1.22 | 1.08 | 1.37 | 1.32 | 0.837 | 0.81 | 0.691 | 0.411 | 0.757 | 0.713
COR-L23 | 1 | 0.9 | 1.16 | 0.744 | 0.823 | 0.525 | 0.532 | 0.658 | 0.58 | 0.67 | 0.787 | 0.714 | 0.746 | 0.837 | 0.525 | 0.35 | 0.339 | 0.337 | 0.281 | 0.317
COR-L 105 | 0.394 | 0.341 | 0.454 | 0.461 | 0.333 | 0.451 | 0.517 | 0.435 | 0.385 | 0.475 | 1 | 1 | 0.674 | 0.891 | 0.58 | 0.605 | 0.64 | 0.69 | 0.698 | 0.537
Calu-6 | 1.09 | 1.09 | 1.17 | 1 | 0.647 | – | – | – | – | – | 0.988 | 0.896 | 0.939 | 0.972 | 0.66 | 0.589 | 0.558 | 0.562 | 0.434 | 0.587
ChaGo-K-1 | – | – | – | – | – | 0.849 | 0.904 | 0.919 | 0.781 | 0.796 | – | – | – | – | – | 0.452 | 0.436 | 0.455 | 0.398 | 0.405
EBC-1 | 0.21 | – | 0.216 | 0.232 | 0.195 | – | – | – | – | – | 0.888 | 0.75 | 0.742 | 0.779 | 0.683 | 0.662 | 0.674 | 0.751 | 0.69 | 0.74
EKVX | 0.224 | 0.194 | 0.231 | 0.207 | 0.188 | – | 0.392 | 0.273 | 0.273 | 0.315 | 0.977 | 0.842 | 0.535 | 0.8 | 0.61 | – | 0.737 | 0.818 | 0.778 | 0.866
EMC-BAC-2 | 0.945 | 0.786 | 0.974 | 0.901 | 0.713 | 0.871 | 0.847 | 0.806 | 0.859 | 0.953 | 0.877 | 0.782 | 0.721 | 0.75 | 0.757 | 0.523 | 0.488 | 0.487 | 0.472 | 0.526
EPLC-272H | 0.164 | 1.08 | 0.953 | 1 | 0.671 | 0.276 | 0.269 | 0.246 | 0.282 | 0.297 | 0.998 | 0.858 | 0.694 | 1.23 | 0.807 | 0.839 | 0.69 | 0.674 | 0.783 | 0.837
H3255 | – | 0.236 | 0.249 | 0.28 | 0.226 | 0.648 | 0.602 | 0.573 | 0.614 | 0.668 | 0.821 | 0.76 | 0.665 | 0.844 | 0.66 | 0.586 | 0.554 | 0.516 | 0.54 | 0.517

Reference: the supplement of paper PMC10307832
